Data reported in article PMC8908507 (ACS Omega, 2022).
“Also recorded” adds a separate entry of the source.

Key:
human MAO-B = settings: read-out: IC50 human MAO-B; cited from earlier work
MAO-B [1] = biological target: T1, MAO-B (Homo sapiens, UniProt P27338); test: MAO-B enzyme kinetics, Lineweaver–Burk and secondary plots; type: biochemical
T1 sequence (P27338 1-520): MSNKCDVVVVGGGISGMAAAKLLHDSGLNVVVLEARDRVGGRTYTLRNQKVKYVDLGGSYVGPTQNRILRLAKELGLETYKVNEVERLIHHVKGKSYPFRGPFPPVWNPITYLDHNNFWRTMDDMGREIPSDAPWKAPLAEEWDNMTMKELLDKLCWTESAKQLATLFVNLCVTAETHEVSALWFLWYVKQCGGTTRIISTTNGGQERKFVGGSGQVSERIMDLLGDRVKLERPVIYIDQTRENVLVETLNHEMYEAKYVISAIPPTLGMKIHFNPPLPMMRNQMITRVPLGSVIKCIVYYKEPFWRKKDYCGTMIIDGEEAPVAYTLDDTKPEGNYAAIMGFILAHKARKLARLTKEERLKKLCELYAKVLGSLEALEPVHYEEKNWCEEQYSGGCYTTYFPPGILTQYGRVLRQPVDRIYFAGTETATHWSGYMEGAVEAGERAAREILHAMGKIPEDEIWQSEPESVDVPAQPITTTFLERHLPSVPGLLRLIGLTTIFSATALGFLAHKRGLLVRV

BACE1 = BACE1 (Homo sapiens, UniProt P56817); test: biochemical; settings: read-out: residual activity (%) BACE1
MAO-B [2] = biological target: T1, MAO-B; test: MAO-B inhibition, recombinant enzyme, benzylamine substrate; type: biochemical
Vero cells [3] = test: Intracellular ROS assay in H2O2-treated Vero cells; type: cell-based, African green monkey; settings: 24 h drug treatment, vs H2O2-treated control
AChE = AChE (Electrophorus electricus, UniProt O42275); test: AChE inhibition; settings: 10 μM
Vero cells [4] = test: Cytotoxicity on Vero cells, MTT method; type: cell-based, African green monkey; settings: 100 μg/mL, 24 h
[5] = Cytotoxicity on Vero cells, MTT method; type: cell-based, African green monkey; settings: African green monkey, Vero cells (normal kidney epithelial cell line)
BChE = BChE (Equus caballus, UniProt P81908); settings: 10 μM
MAO-A = biological target: T2, MAO-A (Homo sapiens, UniProt P21397); test: biochemical
T2 sequence (P21397 1-527): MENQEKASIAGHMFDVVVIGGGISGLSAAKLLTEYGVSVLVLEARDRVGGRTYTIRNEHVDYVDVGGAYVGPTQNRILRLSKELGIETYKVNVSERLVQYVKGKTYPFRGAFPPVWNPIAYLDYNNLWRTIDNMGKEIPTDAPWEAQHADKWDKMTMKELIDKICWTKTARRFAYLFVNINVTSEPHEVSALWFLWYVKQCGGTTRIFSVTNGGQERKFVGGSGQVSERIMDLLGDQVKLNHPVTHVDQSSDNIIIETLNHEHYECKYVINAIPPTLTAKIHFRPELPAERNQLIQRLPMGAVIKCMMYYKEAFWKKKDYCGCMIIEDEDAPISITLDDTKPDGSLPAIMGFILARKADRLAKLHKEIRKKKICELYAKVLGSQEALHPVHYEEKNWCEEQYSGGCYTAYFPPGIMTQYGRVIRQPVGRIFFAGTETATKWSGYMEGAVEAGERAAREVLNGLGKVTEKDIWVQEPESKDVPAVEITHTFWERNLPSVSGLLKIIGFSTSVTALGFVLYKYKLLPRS

MAO-B [6] = biological target: T1, MAO-B; test: Reversibility of MAO-B inhibition by dialysis; type: biochemical

Chain of BACE1 (P56817 46-501): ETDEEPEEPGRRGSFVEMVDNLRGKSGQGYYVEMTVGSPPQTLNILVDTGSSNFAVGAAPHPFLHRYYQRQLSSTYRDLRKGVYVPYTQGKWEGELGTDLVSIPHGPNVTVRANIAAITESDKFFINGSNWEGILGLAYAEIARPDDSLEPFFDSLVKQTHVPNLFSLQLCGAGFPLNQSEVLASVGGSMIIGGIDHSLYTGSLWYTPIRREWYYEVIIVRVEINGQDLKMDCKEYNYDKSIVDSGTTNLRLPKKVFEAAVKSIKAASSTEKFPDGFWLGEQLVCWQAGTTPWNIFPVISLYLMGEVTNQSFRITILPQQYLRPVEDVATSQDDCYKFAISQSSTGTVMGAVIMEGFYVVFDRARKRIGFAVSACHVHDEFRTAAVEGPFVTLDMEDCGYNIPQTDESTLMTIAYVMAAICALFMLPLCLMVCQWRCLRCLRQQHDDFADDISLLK
Chain of BChE (P81908 whole entry): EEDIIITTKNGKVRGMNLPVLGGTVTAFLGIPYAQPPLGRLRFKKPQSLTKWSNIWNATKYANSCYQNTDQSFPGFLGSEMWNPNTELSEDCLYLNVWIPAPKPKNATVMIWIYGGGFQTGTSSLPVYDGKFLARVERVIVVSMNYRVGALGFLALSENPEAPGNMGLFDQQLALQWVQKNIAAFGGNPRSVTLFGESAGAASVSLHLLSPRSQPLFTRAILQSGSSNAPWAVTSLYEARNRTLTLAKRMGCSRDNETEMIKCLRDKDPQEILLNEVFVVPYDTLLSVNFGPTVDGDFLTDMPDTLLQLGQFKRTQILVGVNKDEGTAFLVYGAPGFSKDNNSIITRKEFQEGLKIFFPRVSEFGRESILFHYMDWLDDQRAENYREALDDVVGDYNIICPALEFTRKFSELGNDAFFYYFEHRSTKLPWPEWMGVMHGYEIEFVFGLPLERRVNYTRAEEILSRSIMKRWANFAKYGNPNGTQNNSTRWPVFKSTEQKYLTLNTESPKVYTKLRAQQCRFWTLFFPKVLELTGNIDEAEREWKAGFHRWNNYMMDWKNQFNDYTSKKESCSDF
Chain of AChE (O42275 24-633): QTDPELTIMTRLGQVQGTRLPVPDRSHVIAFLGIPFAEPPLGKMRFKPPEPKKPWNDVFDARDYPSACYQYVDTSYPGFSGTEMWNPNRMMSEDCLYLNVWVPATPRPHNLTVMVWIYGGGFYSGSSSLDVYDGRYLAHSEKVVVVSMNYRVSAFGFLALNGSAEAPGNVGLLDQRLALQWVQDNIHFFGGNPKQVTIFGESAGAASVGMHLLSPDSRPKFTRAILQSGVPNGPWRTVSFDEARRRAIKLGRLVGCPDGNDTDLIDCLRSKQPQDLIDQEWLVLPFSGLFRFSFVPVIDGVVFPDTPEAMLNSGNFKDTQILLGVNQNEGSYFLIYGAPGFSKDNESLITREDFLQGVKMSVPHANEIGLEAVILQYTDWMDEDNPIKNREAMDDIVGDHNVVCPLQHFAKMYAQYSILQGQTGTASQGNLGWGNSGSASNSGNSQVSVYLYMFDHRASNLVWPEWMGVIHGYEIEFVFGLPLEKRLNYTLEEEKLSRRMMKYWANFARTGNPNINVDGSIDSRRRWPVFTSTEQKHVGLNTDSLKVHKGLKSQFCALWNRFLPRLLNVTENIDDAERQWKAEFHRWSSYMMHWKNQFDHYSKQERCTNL

| Structure (SMILES) | IC50 (human MAO-B) [nM] | Ki (MAO-B [1]) [nM] | inhibition type for MAO-B (MAO-B [1]; Lineweaver–Burk plots) | remaining activity at 10 µM (BACE1) [%] | SI (MAO-B compared with MAO-A) (MAO-B [2]; IC50 (MAO-A)/IC50 (MAO-B)) | IC50 (MAO-B [2]; IC50 MAO-B) [nM] | remaining activity at 1 µM (MAO-B [2]; read-out: residual activity (%) MAO-B) [%] | times higher inhibitory activity than pargyline (MAO-B) (MAO-B [2]; vs reference irreversible MAO-B inhibitor pargyline) [times] | times more potent than lazabemide (MAO-B) (MAO-B [2]; vs reference reversible MAO-B drug lazabemide) [times] | intracellular ROS scavenging (Vero cells [3]) | residual activity (%) AChE (AChE) [%] | toxicity by cellular morphology, phase-contrast microscopy (Vero cells [4]) | viability at 24 h, 40 μg/mL [5] [%] | residual activity (%) BChE (BChE) [%] | IC50 (MAO-A) [µM] | remaining activity at 10 µM (MAO-A; read-out: residual activity (%) MAO-A) [%] | relative MAO-B activity, dialyzed (AD) (MAO-B [6]; MK6/MK12 6.0 nM, lazabemide 0.22 μM, pargyline 0.28 μM, after dialysis) [%] | relative MAO-B activity, undialyzed (AU) (MAO-B [6]; MK6/MK12 6.0 nM, lazabemide 0.22 μM, pargyline 0.28 μM, preincubation 30 min) [%] | reversibility of MAO-B inhibition (MAO-B [6]; dialysis) |
| --- | --- | --- | --- | --- | --- | --- | --- | --- | --- | --- | --- | --- | --- | --- | --- | --- | --- | --- | --- |
| O=C(/C=C/C=C/c1ccc(Cl)cc1)c1ccc(O)cc1O [(2E,4E)-5-(4-chlorophenyl)-1-(2,4-dihydroxyphenyl)penta-2,4-dien-1-one] | 11.3 | – | – | – | – | – | – | – | – | – | – | – | – | – | – | – | – | – | – |
| COc1ccc(C(=O)/C=C/C=C/c2ccc(Cl)cc2)c(O)c1 [(2E,4E)-5-(4-chlorophenyl)-1-(2-hydroxy-4-methoxyphenyl)penta-2,4-dien-1-one] | 4.51 | – | – | – | – | – | – | – | – | – | – | – | – | – | – | – | – | – | – |
| COc1ccc(/C=C/C=C/C(=O)c2ccc(F)cc2)cc1 [MK12, (2E,4E)-1-(4-Fluorophenyl)-5-(4-methoxyphenyl)penta-2,4-dien-1-one] | – | 3 ± 0.27 | competitive inhibitors | 81.4 ± 1.03 | 1780.5 | 3.22 ± 0.04 | -2.71 | 44 | 34 | significant scavenging effect of reactive oxygen species; also recorded: significant ROS scavenging effect | 93.3 ± 0.73 | most toxic of the four tested compounds | > 80 | 94.6 ± 1.11 | 5.7 ± 0.72 | 40.9 ± 1.24 | 74.7 | 33.4 | reversible inhibitors |
